Results reported in patent publication US20260077056A1, “LINKER-PAYLOAD COMPOUND, CONJUGATES AND APPLICATIONS THEREOF” (priority 2022, published 2026).

Key:
[1] = tested on: HER2 high-expressing cancer cells SK-BR-3; experiment: Cytotoxicity assay (CellTiter-Glo cell viability), SK-BR-3; type: cell-based; conditions: for IC50: Homo sapiens, SK-BR-3, 96 h, 96 h treatment
Method: (§1) Cytotoxicity assays were performed using HER2 high-expressing cancer cells NCI-N87 (FIG. 1) and SK-BR-3 (FIG. 2), as well as a HER2 negative cell line MDA-MB-468 (FIG. 3) to analyze the effect of conjugates on tumor cell proliferation. The tested articles included conjugates EC302-2-4-1-1 and EC301-2-1-1-1, and a small molecule eribulin (structure is depicted above). In brief, 5000 cells were plated in 96-well plates, and cells were able to attach overnight. Cells were treated with indicated drugs with various concentrations for 96 h. Cell viabilities were examined by CellTiter-Glo® Luminescent Cell Viability Assay, and percentage of cell viability was calculated.
as §1, with “4)” for “1)”, “5),” for “2),”, “6)” for “3)”, “The tested articles included conjugates EC302-2-4-1-1 and EC301-2-1-1-1, and a small molecule eribulin (structure is depicted above).” left out

[2] = tested on: HER2 high-expressing cancer cells NCI-N87; experiment: Cytotoxicity assay (CellTiter-Glo cell viability), NCI-N87; type: cell-based, human; conditions: for IC50: Homo sapiens, NCI-N87, 96 h, 96 h treatment
Method: as §1
as §1, with “4)” for “1)”, “5),” for “2),”, “6)” for “3)”, “The tested articles included conjugates EC302-2-4-1-1 and EC301-2-1-1-1, and a small molecule eribulin (structure is depicted above).” left out

[3] = tested on: FGFR3 high-expressing cancer cells RT112/84; experiment: Cytotoxicity assay (CellTiter-Glo cell viability), RT112/84; type: cell-based; conditions: RT112/84, FGFR3-positive; 96 h
Method: (§2) Cytotoxicity assays were performed using FGFR3 high-expressing cancer cells RT112/84 and RT4, FGFR3 negative cancer cell MCF-7 (FIG. 7) to analyze the effect of conjugates on tumor cell proliferation. The tested articles included conjugate EC302-2-4-1-2, and a small molecule eribulin (structure is depicted above). In brief, 2000 cells (RT112/84) or 5000 cells (RT4 or MCF-7) were plated in 96-well plates, and cells were able to attach overnight. Cells were treated with indicated drugs with various concentrations for 96 h. Cell viabilities were examined by CellTiter-Glo® Luminescent Cell Viability Assay, and percentage of cell viability was calculated.

[4] = tested on: HER2 negative cell line MDA-MB-468; experiment: Cytotoxicity assay (CellTiter-Glo cell viability), MDA-MB-468; type: cell-based; conditions: for IC50: Homo sapiens, MDA-MB-468, 96 h, 96 h treatment
Method: as §1, with “The tested articles included conjugates EC302-2-4-1-1 and EC301-2-1-1-1, and a small molecule eribulin (structure is depicted above).” left out
as §1, with “4)” for “1)”, “5),” for “2),”, “6)” for “3)”, “The tested articles included conjugates EC302-2-4-1-1 and EC301-2-1-1-1, and a small molecule eribulin (structure is depicted above).” left out

[5] = tested on: FGFR3 negative cancer cell MCF-7; experiment: Cytotoxicity assay (CellTiter-Glo cell viability), MCF-7; type: cell-based; conditions: 96 h
Method: as §2

[6] = tested on: FGFR3 high-expressing cancer cells RT4; experiment: Cytotoxicity assay (CellTiter-Glo cell viability), RT4; type: cell-based; conditions: RT4, FGFR3-positive; 96 h
Method: as §2

In the case of C=C1C[C@@H]2CC[C@@]34C[C@H]5O[C@H]6[C@@H](O3)[C@H]3O[C@H](CC[C@@H]3O[C@H]6[C@H]5O4)CC(=O)C[C@@H]3[C@@H](OC)[C@@H](C[C@H](O)CN)O[C@H]3C[C@H]3O[C@@H](CC[C@@H]1O2)C[C@@H](C)C3=C [Eribulin], the “cell proliferation-inhibitory effect, in words” value ([1]; Effect Example 1, SK-BR-3, HER2 high) is reported as “sensitive”, the IC50 ([1]; Effect Example 1, Table 4) is reported as 0.298 nM and the IC50 ([1]; Effect Example 2, Table 5) is reported as 0.211 nM. For the same molecule, the “cell proliferation-inhibitory effect, in words” value ([2]; Effect Example 1, NCI-N87, HER2 high) was “sensitive”, the IC50 ([2]; Effect Example 1, Table 4) was 0.448 nM and the IC50 ([2]; Effect Example 2, Table 5) was 0.501 nM. The “effect on cell proliferation, in words” value [3] was “sensitive”, the “cytotoxicity, in words” value ([4]; Effect Example 1, MDA-MB-468, HER2 negative) was “sensitive” and the IC50 ([4]; Effect Example 1, Table 4) was 0.211 nM. The IC50 ([4]; Effect Example 2, Table 5) was 0.094 nM, the “cytotoxicity, in words” value [5] was “sensitive” and the “effect on cell proliferation, in words” value [6] was “sensitive”.
